Results reported in patent US20090304692A1, “TRIAZINE COMPOUNDS AS PI3 KINASE AND MTOR INHIBITORS” (Wyeth, priority 2008, published 2009).
Where two headings read alike, the source gives them in different places.

How the values were obtained:
Human mTOR (FLAG-TOR) = Human mTOR (FLAG-TOR) (Homo sapiens, UniProt P42345); test: mTOR kinase assay (DELFIA format, purified enzyme); format: biochemical; conditions: read-out: IC50 mTOR
[1] = system: human breast MDA-MB-361 tumor cell line; test: In vitro cell culture growth assay (MTS), MDA-MB-361; format: cell-based; conditions: Homo sapiens, MTS cell growth assay, three days after drug treatment, MDA-MB-361 cells, read-out: IC50 MDA-MB-361
[2] = system: human prostate PC3-mm2 tumor cell line; test: In vitro cell culture growth assay (MTS), PC3-mm2; format: cell-based; conditions: Homo sapiens, PC3MM2, 72 h, MTS cell growth assay, three days after drug treatment, PC3-mm2 cells; read-out: IC50 PC3-mm2
PI3K-α = PI3K-α (Homo sapiens, UniProt P42336); test: PI3K-alpha fluorescence polarization assay; conditions: read-out: IC50 PI3Kα
Chain of PI3K-α (P42336 whole entry, species assumed): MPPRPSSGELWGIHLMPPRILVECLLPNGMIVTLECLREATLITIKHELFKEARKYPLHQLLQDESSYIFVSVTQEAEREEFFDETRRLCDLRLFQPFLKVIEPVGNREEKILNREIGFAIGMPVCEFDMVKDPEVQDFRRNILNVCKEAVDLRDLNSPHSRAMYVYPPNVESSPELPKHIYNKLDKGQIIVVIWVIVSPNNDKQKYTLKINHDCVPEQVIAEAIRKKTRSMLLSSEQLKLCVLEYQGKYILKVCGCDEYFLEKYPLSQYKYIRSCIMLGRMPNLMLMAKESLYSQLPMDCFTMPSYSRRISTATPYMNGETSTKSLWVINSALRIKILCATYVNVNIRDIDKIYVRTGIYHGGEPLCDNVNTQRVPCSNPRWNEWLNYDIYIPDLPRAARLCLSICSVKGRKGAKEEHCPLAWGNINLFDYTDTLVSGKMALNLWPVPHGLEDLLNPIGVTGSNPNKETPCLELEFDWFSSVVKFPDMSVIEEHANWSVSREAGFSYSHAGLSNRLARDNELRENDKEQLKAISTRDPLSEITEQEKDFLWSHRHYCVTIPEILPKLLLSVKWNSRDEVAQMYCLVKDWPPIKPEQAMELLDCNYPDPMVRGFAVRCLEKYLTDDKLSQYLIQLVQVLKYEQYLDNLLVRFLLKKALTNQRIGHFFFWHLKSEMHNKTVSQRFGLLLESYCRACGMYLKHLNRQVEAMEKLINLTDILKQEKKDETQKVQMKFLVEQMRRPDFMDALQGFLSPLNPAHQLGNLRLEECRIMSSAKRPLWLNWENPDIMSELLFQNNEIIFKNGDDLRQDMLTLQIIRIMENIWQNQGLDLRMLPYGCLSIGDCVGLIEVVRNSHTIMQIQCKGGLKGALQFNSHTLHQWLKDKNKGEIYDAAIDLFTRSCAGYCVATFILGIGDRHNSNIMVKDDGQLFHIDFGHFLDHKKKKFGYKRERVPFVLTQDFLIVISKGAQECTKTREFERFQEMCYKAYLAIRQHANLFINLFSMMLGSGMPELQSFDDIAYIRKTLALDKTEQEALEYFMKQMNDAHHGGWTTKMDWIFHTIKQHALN
Chain of PI3K-α (P27986 whole entry partner, species assumed): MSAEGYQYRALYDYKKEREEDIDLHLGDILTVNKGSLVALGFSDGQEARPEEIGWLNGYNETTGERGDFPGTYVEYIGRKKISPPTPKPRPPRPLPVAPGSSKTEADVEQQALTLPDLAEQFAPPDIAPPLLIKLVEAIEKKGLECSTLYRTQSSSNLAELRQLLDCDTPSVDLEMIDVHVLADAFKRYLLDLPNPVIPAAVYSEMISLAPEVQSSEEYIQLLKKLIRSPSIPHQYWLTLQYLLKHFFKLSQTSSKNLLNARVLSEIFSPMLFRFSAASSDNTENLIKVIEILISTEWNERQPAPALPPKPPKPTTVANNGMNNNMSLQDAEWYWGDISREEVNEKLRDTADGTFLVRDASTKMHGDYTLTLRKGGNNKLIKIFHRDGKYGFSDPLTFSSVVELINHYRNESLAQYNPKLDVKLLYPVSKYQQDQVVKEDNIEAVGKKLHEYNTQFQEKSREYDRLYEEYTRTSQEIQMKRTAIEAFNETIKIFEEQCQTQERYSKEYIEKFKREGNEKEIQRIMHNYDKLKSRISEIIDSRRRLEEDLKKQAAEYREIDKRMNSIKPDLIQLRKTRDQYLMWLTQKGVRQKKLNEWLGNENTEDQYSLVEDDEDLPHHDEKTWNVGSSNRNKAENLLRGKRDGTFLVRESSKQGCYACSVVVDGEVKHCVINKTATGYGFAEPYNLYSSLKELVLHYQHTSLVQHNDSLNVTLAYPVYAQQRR

PI3K-γ = PI3K-γ (Homo sapiens, UniProt P48736); test: PI3K-gamma fluorescence polarization assay; conditions: read-out: IC50 PI3Kγ
Chain of PI3K-γ (P48736 whole entry, species assumed): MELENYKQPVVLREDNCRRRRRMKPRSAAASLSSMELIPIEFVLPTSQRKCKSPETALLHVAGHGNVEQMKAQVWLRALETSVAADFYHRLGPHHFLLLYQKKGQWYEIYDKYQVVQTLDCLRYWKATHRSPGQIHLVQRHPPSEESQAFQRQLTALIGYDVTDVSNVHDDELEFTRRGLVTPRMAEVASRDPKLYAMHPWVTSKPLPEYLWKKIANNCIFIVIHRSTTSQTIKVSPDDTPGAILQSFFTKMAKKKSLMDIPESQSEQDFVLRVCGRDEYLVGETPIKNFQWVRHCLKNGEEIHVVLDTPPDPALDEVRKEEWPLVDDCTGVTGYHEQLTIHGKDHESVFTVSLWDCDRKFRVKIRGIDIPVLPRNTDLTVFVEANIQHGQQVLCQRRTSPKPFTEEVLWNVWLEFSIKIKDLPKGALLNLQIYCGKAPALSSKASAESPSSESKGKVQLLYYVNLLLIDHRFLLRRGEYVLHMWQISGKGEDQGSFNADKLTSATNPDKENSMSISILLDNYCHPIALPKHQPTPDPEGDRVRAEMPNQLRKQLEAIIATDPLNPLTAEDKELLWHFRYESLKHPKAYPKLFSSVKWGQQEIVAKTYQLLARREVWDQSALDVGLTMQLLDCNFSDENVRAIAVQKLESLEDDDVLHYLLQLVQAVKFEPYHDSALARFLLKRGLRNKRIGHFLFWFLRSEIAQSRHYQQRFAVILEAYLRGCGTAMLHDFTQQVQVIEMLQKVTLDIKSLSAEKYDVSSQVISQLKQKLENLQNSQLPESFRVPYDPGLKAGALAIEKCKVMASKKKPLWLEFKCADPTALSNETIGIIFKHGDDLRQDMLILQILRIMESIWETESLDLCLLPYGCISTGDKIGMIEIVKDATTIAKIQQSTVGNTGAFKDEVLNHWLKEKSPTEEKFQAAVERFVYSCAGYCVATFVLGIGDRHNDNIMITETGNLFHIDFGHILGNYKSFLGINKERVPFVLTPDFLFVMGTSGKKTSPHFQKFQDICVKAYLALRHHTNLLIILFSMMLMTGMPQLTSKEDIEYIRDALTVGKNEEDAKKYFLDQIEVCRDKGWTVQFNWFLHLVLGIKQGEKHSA

Chain of Human mTOR (FLAG-TOR) (P42345 1360-2549 limits assumed): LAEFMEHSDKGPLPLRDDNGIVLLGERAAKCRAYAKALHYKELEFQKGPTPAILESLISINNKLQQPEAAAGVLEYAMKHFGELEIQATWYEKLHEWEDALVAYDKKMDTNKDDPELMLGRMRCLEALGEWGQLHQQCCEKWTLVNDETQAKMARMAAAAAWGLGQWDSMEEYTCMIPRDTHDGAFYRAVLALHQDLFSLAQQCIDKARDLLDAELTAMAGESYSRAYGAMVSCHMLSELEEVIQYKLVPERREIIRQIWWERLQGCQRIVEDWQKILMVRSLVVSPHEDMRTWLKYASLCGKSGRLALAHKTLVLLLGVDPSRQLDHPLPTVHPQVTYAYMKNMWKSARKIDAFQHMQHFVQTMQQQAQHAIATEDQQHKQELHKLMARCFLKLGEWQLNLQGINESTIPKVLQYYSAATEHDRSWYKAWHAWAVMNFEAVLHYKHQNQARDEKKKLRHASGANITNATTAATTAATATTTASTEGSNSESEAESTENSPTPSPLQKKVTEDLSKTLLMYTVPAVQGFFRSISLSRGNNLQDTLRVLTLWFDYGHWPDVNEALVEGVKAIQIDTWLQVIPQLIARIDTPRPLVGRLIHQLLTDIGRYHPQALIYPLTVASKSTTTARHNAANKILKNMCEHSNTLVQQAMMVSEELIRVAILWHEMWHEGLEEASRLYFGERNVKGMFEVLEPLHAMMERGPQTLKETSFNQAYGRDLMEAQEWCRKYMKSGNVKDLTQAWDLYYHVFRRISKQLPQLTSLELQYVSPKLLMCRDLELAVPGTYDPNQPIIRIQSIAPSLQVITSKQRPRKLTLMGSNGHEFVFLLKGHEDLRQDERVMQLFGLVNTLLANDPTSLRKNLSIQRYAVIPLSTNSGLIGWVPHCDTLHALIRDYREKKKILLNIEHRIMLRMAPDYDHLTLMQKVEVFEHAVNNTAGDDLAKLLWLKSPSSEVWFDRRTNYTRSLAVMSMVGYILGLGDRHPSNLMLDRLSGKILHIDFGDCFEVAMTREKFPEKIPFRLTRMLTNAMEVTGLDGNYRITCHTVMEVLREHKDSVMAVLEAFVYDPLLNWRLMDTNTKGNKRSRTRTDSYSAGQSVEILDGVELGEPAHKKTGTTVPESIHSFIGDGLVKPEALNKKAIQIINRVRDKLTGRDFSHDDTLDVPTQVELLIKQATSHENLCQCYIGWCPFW

IC50 (Human mTOR (FLAG-TOR))	IC50 ([1]; 72 h)	IC50 [2]	IC50 (PI3K-α)	IC50 (PI3K-γ)	IC50 ([1]; MDA-MB-361, 72 h)	Structure (SMILES)
0.001 µM	0.016 µM	0.027 µM	0.0145 µM	0.123 µM	–	COCCNC(=O)c1ccc(NC(=O)Nc2ccc(-c3nc(N4CCOC[C@@H]4C)nc(N4CCOC[C@@H]4C)n3)cc2)cc1 [Example 639, 4-{[(4-{4,6-bis[(3S)-3-methylmorpholin-4-yl]-1,3,5-triazin-2-yl}phenyl)carbamoyl]amino}-N-(2-methoxyethyl)benzamide]
0.007 µM	–	0.059 µM	0.0062 µM	0.0425 µM	0.019 µM	CN1CCN(C(=O)c2ccc(NC(=O)Nc3ccc(-c4nc(N5CCOCC5)nc(N5CCN(C(=O)N(C)C)CC5)n4)cc3)cc2)CC1 [Example 643, N,N-dimethyl-4-(4-{4-[({4-[(4-methylpiperazin-1-yl)carbonyl]phenyl}carbamoyl)amino]phenyl}-6-morpholin-4-yl-1,3,5-triazin-2-yl)piperazine-1-carboxamide]
0.001 µM	0.051 µM	0.185 µM	0.0078 µM	0.0595 µM	–	CN(C)C(=O)N1CCN(c2nc(-c3ccc(NC(=O)Nc4ccc(C(=O)Nc5ccnnc5)cc4)cc3)nc(N3CCOCC3)n2)CC1 [Example 644, N,N-dimethyl-4-{4-morpholin-4-yl-6-[4-({[4-(pyridazin-4-ylcarbamoyl)phenyl]carbamoyl}amino)phenyl]-1,3,5-triazin-2-yl}piperazine-1-carboxamide]
0.006 µM	–	0.223 µM	0.023 µM	0.0855 µM	0.032 µM	CN(C)C(=O)N1CCN(c2nc(-c3ccc(NC(=O)Nc4ccc(C(=O)O)cc4)cc3)nc(N3CCOCC3)n2)CC1 [Example 646, 4-{[(4-{4-[4-(dimethylcarbamoyl)piperazin-1-yl]-6-morpholin-4-yl-1,3,5-triazin-2-yl}phenyl)carbamoyl]amino}benzoic acid]
0.003 µM	0.046 µM	0.136 µM	0.0243 µM	0.107 µM	–	COCCNC(=O)c1ccc(NC(=O)Nc2ccc(-c3nc(N4CCOCC4)nc(N4CCN(C(=O)N(C)C)CC4)n3)cc2)cc1 [Example 647, 4-(4-{4-[({4-[(2-methoxyethyl)carbamoyl]phenyl}carbamoyl)amino]phenyl}-6-morpholin-4-yl-1,3,5-triazin-2-yl)-N,N-dimethylpiperazine-1-carboxamide]
0.003 µM	0.012 µM	0.034 µM	0.002 µM	0.027 µM	–	CN(C)CCN(C)C(=O)c1ccc(NC(=O)Nc2ccc(-c3nc(N4CCOCC4)nc(N4CCN(C(=O)N(C)C)CC4)n3)cc2)cc1 [Example 648, 4-[4-(4-{[(4-{[2-(dimethylamino)ethyl](methyl)carbamoyl}phenyl)carbamoyl]amino}phenyl)-6-morpholin-4-yl-1,3,5-triazin-2-yl]-N,N-dimethylpiperazine-1-carboxamide]
0.006 µM	–	0.037 µM	0.0064 µM	0.038 µM	0.009 µM	CCN1CCN(C(=O)c2ccc(NC(=O)Nc3ccc(-c4nc(N5CCOCC5)nc(N5CCN(C(=O)N(C)C)CC5)n4)cc3)cc2)CC1 [Example 649, 4-(4-{4-[({4-[(4-ethylpiperazin-1-yl)carbonyl]phenyl}carbamoyl)amino]phenyl}-6-morpholin-4-yl-1,3,5-triazin-2-yl)-N,N-dimethylpiperazine-1-carboxamide]
0.026 µM	0.569 µM	1.1 µM	0.077 µM	0.54 µM	–	CN1CCN(Nc2nc(-c3ccc(NC(=O)Nc4ccccc4)cc3)nc(N3CCOCC3)n2)CC1 [Example 686, 1-(4-{4-[(4-methylpiperazin-1-yl)amino]-6-morpholin-4-yl-1,3,5-triazin-2-yl}phenyl)-3-phenylurea]
0.00485 µM	0.355 µM	0.389 µM	0.004 µM	0.0395 µM	–	CN1CCC(Oc2nc(-c3ccc(NC(=O)Nc4ccncc4)cc3)nc(N3CCOCC3)n2)CC1 [Example 687, 1-(4-{4-[(1-methylpiperidin-4-yl)oxy]-6-morpholin-4-yl-1,3,5-triazin-2-yl}phenyl)-3-pyridin-4-ylurea]
0.039 µM	0.053 µM	0.085 µM	0.217 µM	2.48 µM	–	CCOC(=O)N1CCC(Oc2nc(-c3ccc(NC(=O)Nc4ccncc4)cc3)nc(N3CCOCC3)n2)CC1 [Example 689, ethyl 4-[(4-morpholin-4-yl-6-{4-[(pyridin-4-ylcarbamoyl)amino]phenyl}-1,3,5-triazin-2-yl)oxy]piperidine-1-carboxylate]
0.000525 µM	0.112 µM	0.405 µM	0.005 µM	0.0835 µM	–	CCNC(=O)N1CCC(Oc2nc(-c3ccc(NC(=O)Nc4ccncc4)cc3)nc(N3CCOCC3)n2)CC1 [Example 690, N-ethyl-4-[(4-morpholin-4-yl-6-{4-[(pyridin-4-ylcarbamoyl)amino]phenyl}-1,3,5-triazin-2-yl)oxy]piperidine-1-carboxamide]
0.00135 µM	0.052 µM	0.131 µM	0.006 µM	0.199 µM	–	CC(C)(C)OC(=O)N1CCC(Oc2nc(-c3ccc(NC(=O)Nc4ccncc4)cc3)nc(N3CCOCC3)n2)CC1 [Example 691, tert-butyl 4-[(4-morpholin-4-yl-6-{4-[(pyridin-4-ylcarbamoyl)amino]phenyl}-1,3,5-triazin-2-yl)oxy]piperidine-1-carboxylate]
0.00375 µM	0.097 µM	0.326 µM	0.0032 µM	0.029 µM	–	NS(=O)(=O)N1CCC(Oc2nc(-c3ccc(NC(=O)Nc4ccncc4)cc3)nc(N3CCOCC3)n2)CC1 [Example 692, 4-[(4-morpholin-4-yl-6-{4-[(pyridin-4-ylcarbamoyl)amino]phenyl}-1,3,5-triazin-2-yl)oxy]piperidine-1-sulfonamide]

Second part, the compound before the results:

Structure (SMILES)	IC50 (Human mTOR (FLAG-TOR))	IC50 ([1]; 72 h)	IC50 [2]	IC50 (PI3K-α)	IC50 (PI3K-γ)	IC50 ([1]; MDA-MB-361, 72 h)
OCc1cccc(-c2nc(N3CCOCC3)nc(N3C4CCC3COC4)n2)c1 [Example 682, {3-[4-morpholin-4-yl-6-(3-oxa-8-azabicyclo[3.2.1]oct-8-yl)-1,3,5-triazin-2-yl]phenyl}methanol]	0.0885 µM	1.04 µM	0.766 µM	0.0843 µM	1.28 µM	–
Oc1cccc(-c2nc(N3CCOCC3)nc(N3C4CCC3COC4)n2)c1 [Example 683, 3-[4-morpholin-4-yl-6-(3-oxa-8-azabicyclo[3.2.1]oct-8-yl)-1,3,5-triazin-2-yl]phenol]	0.025 µM	0.673 µM	0.584 µM	0.121 µM	1.33 µM	–
Nc1nc2cc(-c3nc(N4CCOCC4)nc(N4C5CCC4COC5)n3)ccc2[nH]1 [Example 684, 5-[4-morpholin-4-yl-6-(3-oxa-8-azabicyclo[3.2.1]oct-8-yl)-1,3,5-triazin-2-yl]-1H-benzimidazol-2-amine]	0.0235 µM	0.806 µM	1.02 µM	0.154 µM	2.35 µM	–
O=C(Nc1ccccc1)Nc1ccc(-c2nc(N3CCOCC3)nc(N3C4CCC3CC(O)C4)n2)cc1 (centres unmarked) [Example 685, 1-{4-[4-(3-hydroxy-8-azabicyclo[3.2.1]oct-8-yl)-6-morpholin-4-yl-1,3,5-triazin-2-yl]phenyl}-3-phenylurea]	0.000825 µM	> 10 µM	> 10 µM	0.007 µM	0.0265 µM	–
O=C(Nc1ccncc1)Nc1ccc(-c2nc(OC3CCNCC3)nc(N3CCOCC3)n2)cc1 [Example 688, 1-{4-[4-morpholin-4-yl-6-(piperidin-4-yloxy)-1,3,5-triazin-2-yl]phenyl}-3-pyridin-4-ylurea]	0.008 µM	1.41 µM	1.95 µM	0.003 µM	0.0355 µM	–
CN(C)CCNC(=O)c1ccc(NC(=O)Nc2ccc(-c3nc(N4CCOCC4)nc(N4C5CCC4COC5)n3)cc2)cc1 [Example 694, N-[2-(dimethylamino)ethyl]-4-[({4-[4-morpholin-4-yl-6-(3-oxa-8-azabicyclo[3.2.1]oct-8-yl)-1,3,5-triazin-2-yl]phenyl}carbamoyl)amino]benzamide]	0.000245 µM	< 0.003 µM	0.011 µM	0.002 µM	0.04 µM	–
CN(C)C(=O)c1ccc(NC(=O)Nc2ccc(-c3nc(N4CCOCC4)nc(N4C5CCC4COC5)n3)cc2)cc1 [Example 695, N,N-dimethyl-4-[({4-[4-morpholin-4-yl-6-(3-oxa-8-azabicyclo[3.2.1]oct-8-yl)-1,3,5-triazin-2-yl]phenyl}carbamoyl)amino]benzamide]	0.00028 µM	0.006 µM	0.007 µM	0.004 µM	0.0705 µM	–
CNC(=O)c1ccc(NC(=O)Nc2ccc(-c3nc(N4CCOCC4)nc(N4C5CCC4COC5)n3)cc2)cc1 [Example 696, N-methyl-4-[({4-[4-morpholin-4-yl-6-(3-oxa-8-azabicyclo[3.2.1]oct-8-yl)-1,3,5-triazin-2-yl]phenyl}carbamoyl)amino]benzamide]	0.000275 µM	–	0.013 µM	0.0045 µM	0.0735 µM	0.013 µM
CN1CCN(C(=O)c2ccc(NC(=O)Nc3ccc(-c4nc(N5CCOCC5)nc(N5C6CCC5COC6)n4)cc3)cc2)CC1 [Example 697, 1-{4-[(4-methylpiperazin-1-yl)carbonyl]phenyl}-3-{4-[4-morpholin-4-yl-6-(3-oxa-8-azabicyclo[3.2.1]oct-8-yl)-1,3,5-triazin-2-yl]phenyl}urea]	0.000459 µM	–	< 0.03 µM	0.0027 µM	0.0427 µM	< 0.03 µM
